Test results from ChEMBL document CHEMBL1155906, “Structural modifications of N-arylamide oxadiazoles: Identification of N-arylpiperidine oxadiazoles as potent and selective agonists of CB2” (Bioorg Med Chem Lett, 2008).
Active and inactive are the calls of the source. The rule behind the calls is not given here.

Experiments:
[1] = Metabolic stability in human liver microsome assessed as intrinsic clearance; type: ADME; settings: liver microsomes
[2] = target: T1, Cannabinoid receptor 2 (Homo sapiens, UniProt P34972); assay: Agonist activity at human CB2 receptor expressed in insect Sf9 cells assessed as effect on Eu-GTP binding
T1 sequence (P34972 whole entry): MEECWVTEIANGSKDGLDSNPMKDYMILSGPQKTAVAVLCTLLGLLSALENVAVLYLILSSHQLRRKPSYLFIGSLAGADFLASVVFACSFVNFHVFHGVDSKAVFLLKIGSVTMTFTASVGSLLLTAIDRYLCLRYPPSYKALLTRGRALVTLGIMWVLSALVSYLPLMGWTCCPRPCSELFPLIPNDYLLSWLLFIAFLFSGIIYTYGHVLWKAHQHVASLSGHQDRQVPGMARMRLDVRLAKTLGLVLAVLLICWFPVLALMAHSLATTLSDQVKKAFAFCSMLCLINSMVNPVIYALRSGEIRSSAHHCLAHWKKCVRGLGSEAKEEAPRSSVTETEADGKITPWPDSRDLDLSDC

[3] = target: T2, Cannabinoid receptor 1 (Homo sapiens, UniProt P21554); assay: Agonist activity at human CB1 receptor expressed in insect Sf9 cells assessed as effect on Eu-GTP binding
T2 sequence (P21554 whole entry): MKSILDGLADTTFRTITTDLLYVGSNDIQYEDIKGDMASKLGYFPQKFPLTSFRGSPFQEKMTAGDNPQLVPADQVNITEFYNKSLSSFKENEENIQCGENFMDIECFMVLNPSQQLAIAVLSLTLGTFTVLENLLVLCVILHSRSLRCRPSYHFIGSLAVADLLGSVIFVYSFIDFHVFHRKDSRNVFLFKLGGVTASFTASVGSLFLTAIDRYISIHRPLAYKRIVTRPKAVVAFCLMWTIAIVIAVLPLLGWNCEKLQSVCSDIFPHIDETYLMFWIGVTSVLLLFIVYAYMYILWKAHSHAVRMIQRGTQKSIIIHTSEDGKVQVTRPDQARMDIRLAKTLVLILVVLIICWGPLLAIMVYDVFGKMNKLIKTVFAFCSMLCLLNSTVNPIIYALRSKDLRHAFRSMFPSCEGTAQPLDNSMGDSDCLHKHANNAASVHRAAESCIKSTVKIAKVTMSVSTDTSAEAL

[4] = Metabolic stability in rat liver microsome assessed as intrinsic clearance; type: ADME; settings: liver microsomes
[5] = organism: Homo sapiens; assay: Selectivity for human CB2 receptor over human CB1 receptor by on Eu-GTP binding assay
[6] = target: T2, Cannabinoid receptor 1; assay: Agonist activity at human CB1 receptor expressed in insect Sf9 cells assessed as effect on Eu-GTP binding relative to CP-55940
[7] = target: T1, Cannabinoid receptor 2; assay: Agonist activity at human CB2 receptor expressed in insect Sf9 cells assessed as effect on Eu-GTP binding relative to CP-55940
[8] = target: T2, Cannabinoid receptor 1; assay: Agonist activity at human CB1 receptor expressed in insect Sf9 cells assessed as effect on Eu-GTP binding at 10 uM
[9] = target: T1, Cannabinoid receptor 2; assay: Agonist activity at human CB2 receptor assessed as inhibition of forskolin-induced increase in intracellular cAMP relative to CP-55940; type: functional, cell-based
[10] = target: T1, Cannabinoid receptor 2; assay: Agonist activity at human CB2 receptor assessed as inhibition of forskolin-induced increase in intracellular cAMP; type: functional, cell-based
[11] = target: T2, Cannabinoid receptor 1; assay: Agonist activity at human CB1 receptor assessed as inhibition of forskolin-induced increase in intracellular cAMP relative to CP-55940; type: functional, cell-based
[12] = target: T2, Cannabinoid receptor 1; assay: Agonist activity at human CB1 receptor assessed as inhibition of forskolin-induced increase in intracellular cAMP; type: functional, cell-based
[13] = target: T1, Cannabinoid receptor 2; assay: Agonist activity at human CB2 receptor expressed in insect Sf9 cells assessed as effect on Eu-GTP binding at 10 uM
[14] = Clearance in iv dosed rat; type: ADME, organism-based; settings: in vivo

| SMILES | microsomal CLint [1] [µL/min/mg] | EC50 [2] [nM] | EC50 [3] [nM] | microsomal CLint [4] [µL/min/mg] | Selectivity [5] | Emax [6] [%] | Emax [7] [%] | Activity [8] | Emax [9] [%] | EC50 [10] [nM] | Emax [11] [%] | EC50 [12] [nM] | Activity [13] | clearance [14] [mL/min/kg] |
| --- | --- | --- | --- | --- | --- | --- | --- | --- | --- | --- | --- | --- | --- | --- |
| Fc1ccc(-c2noc(CCCNc3cnc4ccccc4c3)n2)c(Cl)c1 | 179 | 11 | 472 | 614 | > 200 | 103 | 104 | – | – | – | – | – | – | – |
| c1ccc2ncc(N3CCC(c4nc(C5CCCCC5)no4)CC3)cc2c1 | 283 | 26 | 600 | 185 | – | 105 | 113 | – | – | – | – | – | – | – |
| Clc1ccc(-c2noc(C3CCN(c4cnc5ccccc5c4)CC3)n2)c(Cl)c1 | 58 | 80 | 951 | 43 | – | 27 | 99 | – | – | – | – | – | – | – |
| Fc1ccc(-c2noc(C3CCN(c4cnc5ccc(OC(F)(F)F)cc5c4)CC3)n2)c(Cl)c1 | 28 | 3 | 419 | 18 | – | 33 | 110 | – | – | – | – | – | – | – |
| Fc1ccc(-c2noc([C@H]3CC[C@@H](Nc4cnc5ccccc5c4)C3)n2)c(Cl)c1 (racemic) | – | 1600 | – | – | – | 4 | 77 | inactive | – | – | – | – | – | – |
| Fc1ccc(-c2noc(C3CCN(c4cnc5c(C(F)(F)F)cccc5c4)CC3)n2)c(Cl)c1 | 23 | 16 | 15 | 54 | – | 34 | 106 | – | – | – | – | – | – | – |
| Fc1ccc(-c2noc([C@H]3C[C@@H]3CNc3cnc4ccccc4c3)n2)c(Cl)c1 (racemic) | 69 | 99 | – | 193 | – | 8 | 110 | inactive | 0 | > 2000 | 1 | > 2000 | – | – |
| CC1(C)CCCc2cc(N3CCC(c4nc(-c5ccc(F)cc5Cl)no4)CC3)cnc21 | 380 | 32 | 722 | > 399 | – | 93 | 108 | – | – | – | – | – | – | – |
| Fc1ccc(-c2noc(C3CCN(c4ccc(Cl)c(C(F)(F)F)c4)CC3)n2)c(Cl)c1 | – | 376 | – | – | – | 2 | 93 | inactive | – | – | – | – | – | – |
| Fc1ccc(-c2noc(C3CCN(c4ccnc5ccccc45)CC3)n2)c(Cl)c1 | – | 2860 | – | – | – | 2 | 35 | inactive | – | – | – | – | – | – |
| c1ccc2ncc(N3CCC(c4nc(-c5ccncc5)no4)CC3)cc2c1 | – | 313 | – | – | – | 8 | 53 | inactive | – | – | – | – | – | – |
| Fc1ccc(-c2noc([C@@H]3CCC[C@H]3Nc3cnc4ccccc4c3)n2)c(Cl)c1 (racemic) | – | 465 | 2230 | – | – | 39 | 73 | – | – | – | – | – | – | – |
| O=C(O)CCc1nc(-c2ccc(F)cc2Cl)no1 | – | – | – | – | > 200 | 0.3 | 10 | inactive | – | – | – | – | inactive | – |
| Fc1ccc(-c2noc(C3CCN(c4cnc5ccccc5c4)CC3)n2)c(Cl)c1 | 92 | 89 | 3030 | 80 | – | 36 | 101 | – | 95 | 17 | 17 | > 1000 | – | – |
| CC(CCc1nc(-c2ccc(F)cc2Cl)no1)Nc1cnc2ccccc2c1 (racemic) | 142 | 15 | 1560 | > 399 | > 200 | 69 | 112 | – | – | – | – | – | – | – |
| CC(C)c1noc(C2CCN(c3cnc4ccccc4c3)CC2)n1 | – | 1440 | – | – | – | 8 | 38 | inactive | – | – | – | – | – | – |
| CC(C)(CCc1nc(-c2ccc(F)cc2Cl)no1)Nc1cnc2ccccc2c1 | 429 | 53 | 1300 | 775 | > 200 | 70 | 52 | – | 93 | 50 | 46 | > 2000 | – | – |
| O=C(CCc1nc(-c2ccc(F)cc2Cl)no1)Nc1cnc2ccccc2c1 | 49 | 2 | 403 | 126 | > 200 | 51 | 115 | – | 98 | 5 | 49 | 559 | – | 95 |
| O=C(NCCc1nc(-c2ccc(F)cc2Cl)no1)c1cnc2ccccc2c1 | – | 1550 | – | – | > 200 | -1 | 87 | inactive | – | – | – | – | – | – |
| Fc1ccc(-c2noc(C[C@@H]3CCN(c4cnc5ccccc5c4)C3)n2)c(Cl)c1 | 215 | 86 | 1270 | 426 | – | 46 | 116 | – | 23 | > 2000 | 3 | > 2000 | – | – |
| CC(C)n1ccc2cc(N3CCC(c4nc(-c5ccc(F)cc5Cl)no4)CC3)cnc21 | – | 340 | – | – | – | 13 | 88 | inactive | – | – | – | – | – | – |
| Clc1cnccc1-c1noc(C2CCN(c3cnc4ccccc4c3)CC2)n1 | 251 | 24 | 96 | 187 | – | 23 | 103 | – | – | – | – | – | – | – |
| Clc1ccc(-c2noc(C3CCN(c4cnc5ccccc5c4)CC3)n2)cc1 | – | 1780 | 2620 | – | – | 26 | 26 | – | – | – | – | – | – | – |
| Fc1ccc(-c2noc(C3CCN(c4cnc5c(c4)CCCC5)CC3)n2)c(Cl)c1 | 95 | 19 | 910 | 130 | – | 60 | 113 | – | – | – | – | – | – | – |
| Fc1ccccc1-c1noc(C2CCN(c3cnc4ccccc4c3)CC2)n1 | – | 1550 | – | – | – | 8 | 89 | inactive | – | – | – | – | – | – |
| Fc1ccc(-c2noc(C[C@H]3CCN(c4cnc5ccccc5c4)C3)n2)c(Cl)c1 | 215 | 140 | 1690 | 579 | – | 24 | 109 | – | – | – | – | – | – | – |
